Earlier results, collected in patent publication US20140012157A1, “Monobody Sensors for Monitoring Neuromuscular Blockade” (priority 2007, published 2014).

What was measured:
[1] = test system: isolated cat anterior tibialis and sartorius muscles
[2] = manufacturer's recommended intubation dose
[3] = PTC of 1 measured; from t=18.8−6.46√PTC

| Structure (SMILES) | receptors that had to be blocked by the antagonist before block was noticeable [1] | receptors that had to be blocked for near complete blockade [1] | 2×ED 95 dose (double the dose that is effective for 95% of the population) [2] | time until return of the TOF [3] |
| --- | --- | --- | --- | --- |
| COc1cc2c3cc1Oc1cc(ccc1O)C[C@@H]1c4c(cc(OC)c(O)c4Oc4ccc(cc4)C[C@@H]3N(C)CC2)CC[N+]1(C)C [tubocurarine] | 76% | 92% |  |  |
| C=CC[N+]1([C@H]2C[C@H]3[C@@H]4CC[C@H]5C[C@H](O)[C@@H](N6CCOCC6)C[C@]5(C)[C@H]4CC[C@]3(C)[C@H]2OC(C)=O)CCCC1 [rocuronium] |  |  | 0.6 mg/kg | 12.34 min |
